Assay results taken from patent US20040086886A1, “Polymorphisms associated with cardiac arrythmia” (priority 2003, published 2004).

How the values were obtained:
Q9E-MiRP1 channels = Q9E-MiRP1 channels (Homo sapiens, UniProt Q12809+Q9Y6J6, Q9E); details: Abbott et al. (1999); cited from earlier work
[1] = target: wild type MiRP1/HERG channels (Homo sapiens, UniProt Q12809); assay: cell-based; details: Ki (equilibrium inhibition constant), wild type MiRP1
[2] = target: wild type MiRP1/HERG channels (Homo sapiens, UniProt Q12809+Q9Y6J6); assay: cell-based
I57T-MiRP1/HERG channels = I57T-MiRP1/HERG channels (Homo sapiens, UniProt Q12809); assay: cell-based
I57T-MiRP1/HERG channels, sequence (Q12809 whole entry): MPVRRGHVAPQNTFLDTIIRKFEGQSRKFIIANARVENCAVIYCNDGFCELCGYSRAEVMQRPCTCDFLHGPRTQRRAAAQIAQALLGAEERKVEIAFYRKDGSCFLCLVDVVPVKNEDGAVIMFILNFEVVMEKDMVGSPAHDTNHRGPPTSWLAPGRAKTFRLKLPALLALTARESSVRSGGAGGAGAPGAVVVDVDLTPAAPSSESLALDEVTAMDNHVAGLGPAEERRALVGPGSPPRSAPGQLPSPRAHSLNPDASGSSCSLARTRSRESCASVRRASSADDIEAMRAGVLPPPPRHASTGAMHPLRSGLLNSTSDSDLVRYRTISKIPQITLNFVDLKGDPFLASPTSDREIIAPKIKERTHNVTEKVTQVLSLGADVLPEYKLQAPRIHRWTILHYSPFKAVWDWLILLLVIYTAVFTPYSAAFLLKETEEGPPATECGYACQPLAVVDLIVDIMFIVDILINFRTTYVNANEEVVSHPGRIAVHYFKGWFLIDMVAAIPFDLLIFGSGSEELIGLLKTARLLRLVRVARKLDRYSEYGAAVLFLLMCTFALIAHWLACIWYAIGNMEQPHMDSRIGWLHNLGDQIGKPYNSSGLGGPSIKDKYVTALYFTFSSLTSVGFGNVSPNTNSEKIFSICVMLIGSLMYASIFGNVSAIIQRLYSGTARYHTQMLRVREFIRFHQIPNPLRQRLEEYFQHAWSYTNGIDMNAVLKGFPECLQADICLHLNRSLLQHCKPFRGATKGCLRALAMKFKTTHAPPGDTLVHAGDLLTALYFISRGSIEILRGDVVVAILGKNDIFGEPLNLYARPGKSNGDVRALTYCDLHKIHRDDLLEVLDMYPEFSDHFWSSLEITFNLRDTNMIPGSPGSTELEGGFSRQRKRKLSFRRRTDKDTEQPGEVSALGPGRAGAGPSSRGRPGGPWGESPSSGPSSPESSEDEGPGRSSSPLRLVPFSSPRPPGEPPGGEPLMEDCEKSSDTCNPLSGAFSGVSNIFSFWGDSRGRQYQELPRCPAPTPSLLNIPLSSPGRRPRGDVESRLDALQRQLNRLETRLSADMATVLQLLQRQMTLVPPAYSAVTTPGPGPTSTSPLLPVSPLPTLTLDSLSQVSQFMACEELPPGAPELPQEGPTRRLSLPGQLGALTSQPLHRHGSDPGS
I57T-MiRP1/HERG channels, sequence (Q9Y6J6 whole entry I57T, further chain): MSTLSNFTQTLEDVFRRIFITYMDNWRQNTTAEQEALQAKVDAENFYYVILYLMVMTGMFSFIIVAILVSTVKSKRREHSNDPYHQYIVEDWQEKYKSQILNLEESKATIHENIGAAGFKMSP

Q9E-MiRP1 channels, sequence (Q9Y6J6 whole entry Q9E): as the sequence (Q9Y6J6 whole entry I57T, further chain) above, with Q9E, T57I counted along it
Q9E-MiRP1 channels, sequence (Q12809 whole entry): as the sequence (Q12809 whole entry) above
wild type MiRP1/HERG channels (Homo sapiens, UniProt Q12809+Q9Y6J6), sequence (Q12809 whole entry): as above
wild type MiRP1/HERG channels (Homo sapiens, UniProt Q12809+Q9Y6J6), sequence (Q9Y6J6 whole entry): as the sequence (Q9Y6J6 whole entry I57T, further chain) above, with T57I counted along it
wild type MiRP1/HERG channels (Homo sapiens, UniProt Q12809), sequence (Q12809 whole entry): as the sequence (Q12809 whole entry) above
wild type MiRP1/HERG channels (Homo sapiens, UniProt Q12809), sequence (Q9Y6J6 whole entry, further chain): as the sequence (Q9Y6J6 whole entry I57T, further chain) above, with T57I counted along it

CC[C@H]1OC(=O)[C@H](C)[C@@H](O[C@H]2C[C@@](C)(OC)[C@@H](O)[C@H](C)O2)[C@H](C)[C@@H](O[C@@H]2O[C@H](C)C[C@H](N(C)C)[C@H]2O)[C@](C)(OC)C[C@@H](C)C(=O)[C@H](C)[C@@H](O)[C@]1(C)O [clarithromycin]
Sensitivity of Q9E-MiRP1 channels to drug inhibition relative to wild type (Q9E-MiRP1 channels): three-fold more sensitive

O=c1[nH]c2ccccc2n1CCCN1CCN(C(c2ccccc2)c2ccccc2)CC1 [oxatomide]
Ki [1]: 422 nM | Level for half-maximal inhibition relative to plasma (therapeutic) levels in patients [2]: close to their therapeutic concentrations | Ki (I57T-MiRP1/HERG channels): 1880 nM
